In patent US9145392B2, “Imidazole amines as modulators of kinase activity” (Merck Patent GmbH, priority 2011, dated 2015):

Experiments:
P70S6K (T412E mutant) = P70S6K (T412E mutant) (Homo sapiens (Human), UniProt P23443, T412E); assay: P70S6K enzyme assay; assay type: biochemical; details: read-out: IC50 p70S6K
Outline: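 Read-out is the substrate/phosphopeptide ratio from mobility-shift electrophoresis on a LabChip 3000.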

His-AKT (Full Length) = His-AKT (Full Length) (Homo sapiens (Human), UniProt P31749); assay: AKT enzyme assay; assay type: biochemical; details: read-out: IC50 AKT
Chain of His-AKT (Full Length) (P31749 whole entry): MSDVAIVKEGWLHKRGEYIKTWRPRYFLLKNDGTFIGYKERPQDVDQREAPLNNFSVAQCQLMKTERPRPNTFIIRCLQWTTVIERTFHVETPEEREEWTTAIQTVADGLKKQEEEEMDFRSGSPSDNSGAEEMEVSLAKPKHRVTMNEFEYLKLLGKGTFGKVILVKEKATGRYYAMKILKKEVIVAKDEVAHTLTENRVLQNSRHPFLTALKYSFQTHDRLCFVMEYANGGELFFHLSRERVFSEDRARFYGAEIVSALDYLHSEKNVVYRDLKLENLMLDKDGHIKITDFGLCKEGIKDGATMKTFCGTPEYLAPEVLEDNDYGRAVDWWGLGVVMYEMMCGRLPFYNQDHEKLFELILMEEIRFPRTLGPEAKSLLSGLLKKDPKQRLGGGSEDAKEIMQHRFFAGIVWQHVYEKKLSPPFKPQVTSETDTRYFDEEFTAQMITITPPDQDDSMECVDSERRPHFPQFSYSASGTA
Experimental: A TTP Mosquito liquid handling instrument is used to place 125n1 of the appropriate concentration of inhibitor in 100% DMSO (for a dose response curve calculation) into each well of a 384-well plate.
The reaction is incubated for 90 min at 25 C, and then stopped by the addition of 70 μl of Stop buffer (100 mM HEPES pH 7.5, 0.015% Brij-35, 10 mM EDTA (Sigma, E7889)).
The plate is read on a Caliper LC 3000 in an Off-Chip mobility shift assay format, using the following parameters for a 12-sipper chip: screening pressure −2.3 psi, upstream voltage −500, and downstream voltage −3000. These conditions cause unphosphorylated substrate and phosphorylated product peptide to resolve as separate peaks allowing direct measurement of percentage of conversion of substrate to product. The percent conversion can be plotted against concentration of inhibitor to produce a sigmoidal dose response curve, from which an IC50 can be calculated.

Chain of P70S6K (T412E mutant) (P23443 whole entry T412E): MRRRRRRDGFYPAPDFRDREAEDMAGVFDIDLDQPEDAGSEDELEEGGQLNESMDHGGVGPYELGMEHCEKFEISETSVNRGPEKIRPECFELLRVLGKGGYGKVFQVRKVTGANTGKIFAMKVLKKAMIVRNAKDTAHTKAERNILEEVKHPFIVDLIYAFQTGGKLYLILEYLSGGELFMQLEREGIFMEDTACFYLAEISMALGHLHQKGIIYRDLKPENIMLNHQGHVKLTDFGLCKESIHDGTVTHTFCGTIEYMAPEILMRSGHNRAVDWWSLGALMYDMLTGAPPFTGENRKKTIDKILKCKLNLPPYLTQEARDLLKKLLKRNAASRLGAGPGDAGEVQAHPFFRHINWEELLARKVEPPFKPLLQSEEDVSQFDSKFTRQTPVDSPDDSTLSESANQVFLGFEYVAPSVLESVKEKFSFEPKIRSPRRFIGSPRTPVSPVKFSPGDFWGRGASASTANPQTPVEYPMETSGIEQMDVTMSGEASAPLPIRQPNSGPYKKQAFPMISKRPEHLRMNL

Row | Structure (SMILES) | IC50 (P70S6K (T412E mutant)) [nM] | IC50 (His-AKT (Full Length)) [nM]
1 | CN(C)CCn1cc(-c2ccc(F)c(C(F)(F)F)c2)nc1C1CCN(c2ncnc(N)c2/C=C/C2CC2)CC1 [Compound 85, (E)-5-(2-Cyclopropylvinyl)-6-(4-(1-(2-(dimethylamino)ethyl)-4-(4-fluoro-3-(trifluoromethyl)phenyl)-1H-imidazol-2-yl)piperidin-1-yl)pyrimidin-4-amine] | 12 | 43
2 | CCO/C=C/c1c(N)ncnc1N1CCC(c2nc(-c3ccc(F)c(C(F)(F)F)c3)cn2CCN(C)C)CC1 [Compound 86, (E)-6-(4-(1-(2-(Dimethylamino)ethyl)-4-(4-fluoro-3-(trifluoromethyl)phenyl)-1H-imidazol-2-yl)piperidin-1-yl)-5-(2-ethoxyvinyl)pyrimidin-4-amine] | 1.9 | 4
3 | CN(C)CCn1cc(-c2ccc(F)c(C(F)(F)F)c2)nc1C1CCN(c2ncnc(N)c2-c2ccc(C(C)(C)O)cc2)CC1 [Compound 87, 2-(4-(4-Amino-6-(4-(1-(2-(dimethylamino)ethyl)-4-(4-fluoro-3-(trifluoromethyl)phenyl)-1H-imidazol-2-yl)piperidin-1-yl)pyrimidin-5-yl)phenyl)propan-2-ol] | 9.3 | 190
4 | COC(=O)c1ccc(-c2c(N)ncnc2N2CCC(c3nc(-c4ccc(F)c(C(F)(F)F)c4)cn3CCN(C)C)CC2)cc1 [Compound 88, Methyl 4-(4-amino-6-(4-(1-(2-(dimethylamino)ethyl)-4-(4-fluoro-3-(trifluoromethyl)phenyl)-1H-imidazol-2-yl)piperidin-1-yl)pyrimidin-5-yl)benzoate] | 8.1 | 95
5 | CN(C)CCn1cc(-c2ccc(F)c(C(F)(F)F)c2)nc1C1CCN(c2ncnc(N)c2-c2ccc(C(=O)O)cc2)CC1 [Compound 89] | 7.3 | 33
6 | CN(C)CCn1cc(-c2ccc(F)c(C(F)(F)F)c2)nc1C1CCN(c2ncnc(N)c2C2=CCCC2)CC1 [Compound 90] | 3.1 | 31
7 | CN(C)CCn1cc(-c2ccc(F)c(C(F)(F)F)c2)nc1C1CCN(c2ncnc(N)c2C2CC2)CC1 [Compound 91, 5-Cyclopropyl-6-(4-(1-(2-(dimethylamino)ethyl)-4-(4-fluoro-3-(trifluoromethyl)phenyl)-1H-imidazol-2-yl)piperidin-1-yl)pyrimidin-4-amine] | 3.2 | 4.8
8 | CCc1c(N)ncnc1N1CCC(c2nc(-c3ccc(F)c(C(F)(F)F)c3)cn2CCN2CC(F)C2)CC1 [Compound 92, 5-ethyl-6-(4-(4-(4-fluoro-3-(trifluoromethyl)phenyl)-1-(2-(3-fluoroazetidin-1-yl)ethyl)-1H-imidazol-2-yl)piperidin-1-yl)pyrimidin-4-amine] | 4.2 | 71
9 | CCc1c(N)ncnc1N1CCC(c2nc(-c3ccc(F)c(C(F)(F)F)c3)cn2CCN2CC(C)C2)CC1 [Compound 93, 5-ethyl-6-(4-(4-(4-fluoro-3-(trifluoromethyl)phenyl)-1-(2-(3-methylazetidin-1-yl)ethyl)-1H-imidazol-2-yl)piperidin-1-yl)pyrimidin-4-amine] | 3 | 7.7
10 | CCc1c(N)ncnc1N1CCC(c2nc(-c3ccc(F)c(C(F)(F)F)c3)cn2CCN2CC(F)(F)C2)CC1 [Compound 94, 6-(4-(1-(2-(3,3-difluoroazetidin-1-yl)ethyl)-4-(4-fluoro-3-(trifluoromethyl)phenyl)-1H-imidazol-2-yl)piperidin-1-yl)-5-ethylpyrimidin-4-amine] | 13 | 1600
11 | CCN(C)Cc1c(N)ncnc1N1CCC(c2nc(-c3ccc(F)c(C(F)(F)F)c3)cn2CCN(C)C)CC1 [Compound 95, 6-(4-(1-(2-(dimethylamino)ethyl)-4-(4-fluoro-3-(trifluoromethyl)phenyl)-1H-imidazol-2-yl)piperidin-1-yl)-5-((ethyl(methyl)amino)methyl)pyrimidin-4-amine] | 47 | 520
12 | CC(C)Oc1c(N)ncnc1N1CCC(c2nc(-c3ccc(F)c(C(F)(F)F)c3)cn2CCN2CCC2)CC1 [Compound 96, 6-(4-(1-(2-(azetidin-1-yl)ethyl)-4-(4-fluoro-3-(trifluoromethyl)phenyl)-1H-imidazol-2-yl)piperidin-1-yl)-5-isopropoxypyrimidin-4-amine] | 5.3 | 7.9

Other lines, results leading:

Row | IC50 (P70S6K (T412E mutant)) [nM] | IC50 (His-AKT (Full Length)) [nM] | Structure (SMILES)
13 | 2.2 | 6.1 | COc1c(N)ncnc1N1CCC(c2nc(-c3ccc(F)c(C(F)(F)F)c3)cn2CCN2CCC2)CC1 [Compound 97, 6-(4-(1-(2-(azetidin-1-yl)ethyl)-4-(4-fluoro-3-(trifluoromethyl)phenyl)-1H-imidazol-2-yl)piperidin-1-yl)-5-methoxypyrimidin-4-amine]
14 | 3 | 6.9 | Nc1ncnc(N2CCC(c3nc(-c4ccc(F)c(C(F)(F)F)c4)cn3CCN3CCC3)CC2)c1-c1cn[nH]c1 [Compound 98, 6-(4-(1-(2-(azetidin-1-yl)ethyl)-4-(4-fluoro-3-(trifluoromethyl)phenyl)-1H-imidazol-2-yl)piperidin-1-yl)-5-(1H-pyrazol-4-yl)pyrimidin-4-amine]
15 | 4.5 | 18 | CCc1c(N)ncnc1N1CCC(c2nc(-c3cncc(C(F)(F)F)c3)cn2CCN2CCC2)CC1 [Compound 99, 6-(4-(1-(2-(azetidin-1-yl)ethyl)-4-(5-(trifluoromethyl)pyridin-3-yl)-1H-imidazol-2-yl)piperidin-1-yl)-5-ethylpyrimidin-4-amine]
16 | 2.3 | 16 | CCc1c(N)ncnc1N1CCC(c2nc(-c3cccc(OC(F)(F)F)c3)cn2CCN2CCC2)CC1 [Compound 100, 6-(4-(1-(2-(azetidin-1-yl)ethyl)-4-(3-(trifluoromethoxy)phenyl)-1H-imidazol-2-yl)piperidin-1-yl)-5-ethylpyrimidin-4-amine]
17 | 7.6 | 31 | CCc1c(N)ncnc1N1CCC(c2nc(-c3cncc(Cl)c3)cn2CCN2CCC2)CC1 [Compound 101, 6-(4-(1-(2-(azetidin-1-yl)ethyl)-4-(5-chloropyridin-3-yl)-1H-imidazol-2-yl)piperidin-1-yl)-5-ethylpyrimidin-4-amine]
18 | 2.4 | 4.1 | CCOc1c(N)ncnc1N1CCC(c2nc(-c3ccc(F)c(C(F)(F)F)c3)cn2CCN2CCC2)CC1 [Compound 102, 6-(4-(1-(2-(azetidin-1-yl)ethyl)-4-(4-fluoro-3-(trifluoromethyl)phenyl)-1H-imidazol-2-yl)piperidin-1-yl)-5-ethoxypyrimidin-4-amine]
19 | 4.2 | 6.6 | Nc1ncnc(N2CCC(c3nc(-c4ccc(F)c(C(F)(F)F)c4)cn3CCN3CCC3)CC2)c1OCC(F)(F)F [Compound 103, 6-(4-(1-(2-(azetidin-1-yl)ethyl)-4-(4-fluoro-3-(trifluoromethyl)phenyl)-1H-imidazol-2-yl)piperidin-1-yl)-5-(2,2,2-trifluoroethoxy)pyrimidin-4-amine]
20 | 3.1 | 16.5 | CCc1c(N)ncnc1N1CCC(c2nc(-c3ccnc(Cl)c3)cn2CCN2CCC2)CC1 [Compound 104, 6-(4-(1-(2-(azetidin-1-yl)ethyl)-4-(2-chloropyridin-4-yl)-1H-imidazol-2-yl)piperidin-1-yl)-5-ethylpyrimidin-4-amine]
21 | 2.7 | 13 | CCc1c(N)ncnc1N1CCC(c2nc(-c3ccnc(C(F)(F)F)c3)cn2CCN2CCC2)CC1 [Compound 105, 6-(4-(1-(2-(azetidin-1-yl)ethyl)-4-(2-(trifluoromethyl)pyridin-4-yl)-1H-imidazol-2-yl)piperidin-1-yl)-5-ethylpyrimidin-4-amine]
22 | 21 | 49 | CCc1c(N)ncnc1N1CCC(c2nc(-c3ccc(F)c(C(N)=O)c3)cn2CCN2CCC2)CC1 [Compound 106, 5-(2-(1-(6-amino-5-ethylpyrimidin-4-yl)piperidin-4-yl)-1-(2-(azetidin-1-yl)ethyl)-1H-imidazol-4-yl)-2-fluorobenzamide]
23 | 98 | 160 | CCc1c(N)ncnc1N1CCC(c2nc(-c3ccc(OC)c(C(N)=O)c3)cn2CCN2CCC2)CC1 [Compound 107, 5-(2-(1-(6-amino-5-ethylpyrimidin-4-yl)piperidin-4-yl)-1-(2-(azetidin-1-yl)ethyl)-1H-imidazol-4-yl)-2-methoxybenzamide]
24 | 2.2 | 4.8 | CCc1c(N)ncnc1N1CCC(c2nc(-c3ccc(F)c(OC)c3)cn2CCN2CCC2)CC1 [Compound 108, 6-(4-(1-(2-(azetidin-1-yl)ethyl)-4-(4-fluoro-3-methoxyphenyl)-1H-imidazol-2-yl)piperidin-1-yl)-5-ethylpyrimidin-4-amine]
25 | 0.9 | 1.6 | Nc1ncnc(N2CCC(c3nc(-c4ccc(F)c(C(F)(F)F)c4)cn3CCN3CCC3)CC2)c1-c1cnoc1 [Compound 109, 6-(4-(1-(2-(azetidin-1-yl)ethyl)-4-(4-fluoro-3-(trifluoromethyl)phenyl)-1H-imidazol-2-yl)piperidin-1-yl)-5-(isoxazol-4-yl)pyrimidin-4-amine]
26 | 0.7 | 1.9 | Nc1ncnc(N2CCC(c3nc(-c4ccc(F)c(C(F)(F)F)c4)cn3CCN3CCC3)CC2)c1-c1cc[nH]c1 [Compound 110, 6-(4-(1-(2-(azetidin-1-yl)ethyl)-4-(4-fluoro-3-(trifluoromethyl)phenyl)-1H-imidazol-2-yl)piperidin-1-yl)-5-(1H-pyrrol-3-yl)pyrimidin-4-amine]
